Assay results from patent publication US20240018145A1, “[…]-DEPENDENT EN[…] TREATING OR […]” (priority 2020, published 2024).

Test system: FLU A (PR/8/34)
Assay: Flu A Neuraminidase Antiviral Assay
Assay type: cell-based
Settings: not given

Compound	EC50 [nM]
CN1C(=O)c2c(O)c(=O)ccn2N2C(c3ccccc3)C(O)CCC12 (centres unmarked) [Compound 136A, 2,7-dihydroxy-5-methyl-1-phenyl-1,2,3,4,4a,5-hexahydrodipyrido[1,2-b:2′,1′-f][1,2,4]triazine-6,8-dione]	1920
Cc1ccccc1C1C(CC(F)(F)F)CCC2(C)N(C)C(=O)c3c(O)c(=O)ccn3N12 (single isomer, unassigned) [Compound 87B, 7-hydroxy-4a,5-dimethyl-1-(o-tolyl)-2-(2,2,2-trifluoroethyl)-1,2,3,4,4a,5-hexahydrodipyrido[1,2-b:2′,1′-f][1,2,4]triazine-6,8-dione]	3.6
CN1C(=O)c2c(O)c(=O)ccn2N2C1CCC1(CCC(F)(F)CC1)C2c1ccccc1 (single isomer, unassigned) [Compound 72A, 4,4-difluoro-7′-hydroxy-5′-methyl-1′-phenyl-3′,4′,4a′,5′-tetrahydro-1′H-spiro[cyclohexane-1,2′-dipyrido[1,2-b:2′,1′-f][1,2,4]triazine]-6′,8′-dione]	> 810
Cc1ccccc1C1C(CCC(F)F)CCC2N(C)C(=O)c3c(O)c(=O)ccn3N12 (single isomer, unassigned) [Compound 103B, 2-(3,3-difluoropropyl)-7-hydroxy-5-methyl-1-(o-tolyl)-1,2,3,4,4a,5-hexahydrodipyrido[1,2-b:2′,1′-f][1,2,4]triazine-6,8-dione]	5.3
CN1C(=O)c2c(O)c(=O)ccn2N2C(c3ccccc3F)C(CC(F)(F)F)CCC12 (single isomer, unassigned) [Compound 127A, 1-(2-fluorophenyl)-7-hydroxy-5-methyl-2-(2,2,2-trifluoroethyl)-1,2,3,4,4a,5-hexahydrodipyrido[1,2-b:2′,1′-f][1,2,4]triazine-6,8-dione]	3500
CN1C(=O)c2c(O)c(=O)ccn2N2C1CCC(O)C2(C)c1ccccc1 (centres unmarked) [Compound 137B, 2,7-dihydroxy-1,5-dimethyl-1-phenyl-1,2,3,4,4a,5-hexahydrodipyrido[1,2-b:2′,1′-f][1,2,4]triazine-6,8-dione]	> 8100
CN1C(=O)c2c(O)c(=O)ccn2N2C(c3ccccc3)C3CCC(C3)C12 (single isomer, unassigned) [Compound 9C, 4-hydroxy-6-methyl-11-phenyl-6a,7,8,9,10,11-hexahydro-3H-7,10-methanopyrido[1′,2′:1,6][1,2,4]triazino[2,3-a]azepine-3,5(6H)-dione]	> 8100
CN1C(=O)c2c(O)c(=O)ccn2N2C(c3ccccc3)C(CCC3CC3)CCC12 (single isomer, unassigned) [Compound 115A, 2-(2-cyclopropylethyl)-7-hydroxy-5-methyl-1-phenyl-1,2,3,4,4a,5-hexahydrodipyrido[1,2-b:2′,1′-f][1,2,4]triazine-6,8-dione]	> 8100
CN1C(=O)c2c(O)c(=O)ccn2N2C(c3ccccc3)C(CCC(F)(F)F)CCC12 (single isomer, unassigned) [Compound 128B, 7-hydroxy-5-methyl-1-phenyl-2-(3,3,3-trifluoropropyl)-1,2,3,4,4a,5-hexahydrodipyrido[1,2-b:2′,1′-f][1,2,4]triazine-6,8-dione]	1.5
Cc1cccc(C2(C)CCCC3N(CC(F)F)C(=O)c4c(O)c(=O)ccn4N32)n1 (single isomer, unassigned) [Compound 54B, 5-(2,2-difluoroethyl)-7-hydroxy-1-methyl-1-(6-methylpyridin-2-yl)-1,2,3,4,4a,5-hexahydrodipyrido[1,2-b:2′,1′-f][1,2,4]triazine-6,8-dione]	24.9
CC1(c2ccccn2)CCCC2N(CC(F)(F)F)C(=O)c3c(O)c(=O)ccn3N21 (single isomer, unassigned) [Compound 39A, 7-hydroxy-1-methyl-1-(pyridin-2-yl)-5-(2,2,2-trifluoroethyl)-1,2,3,4,4a,5-hexahydrodipyrido[1,2-b:2′,1′-f][1,2,4]triazine-6,8-dione]	> 8100
CCN1C(=O)c2c(O)c(=O)ccn2N2C1CCCC2(C)c1ccccc1 (single isomer, unassigned) [Compound 36B, 5-ethyl-7-hydroxy-1-methyl-1-phenyl-1,2,3,4,4a,5-hexahydrodipyrido[1,2-b:2′,1′-f][1,2,4]triazine-6,8-dione]	1290
CCN1C(=O)c2c(O)c(=O)ccn2N2C1CCCC2(C)c1cccc(C)n1 (single isomer, unassigned) [Compound 53B, 5-ethyl-7-hydroxy-1-methyl-1-(6-methylpyridin-2-yl)-1,2,3,4,4a,5-hexahydrodipyrido[1,2-b:2′,1′-f][1,2,4]triazine-6,8-dione]	8.3
CCN1C(=O)c2c(O)c(=O)ccn2N2C(c3ccccc3)C(C3(C(F)(F)F)CC3)CCC12 (single isomer, unassigned) [Compound 104B, 5-ethyl-7-hydroxy-1-phenyl-2-(1-(trifluoromethyl)cyclopropyl)-1,2,3,4,4a,5-hexahydrodipyrido[1,2-b:2′,1′-f][1,2,4]triazine-6,8-dione]	> 810
CN1C(=O)c2c(O)c(=O)ccn2N2C(c3ccccc3)C(CC(F)(F)F)CCC12 (single isomer, unassigned) [Compound 118A, 7-hydroxy-5-methyl-1-phenyl-2-(2,2,2-trifluoroethyl)-1,2,3,4,4a,5-hexahydrodipyrido[1,2-b:2′,1′-f][1,2,4]triazine-6,8-dione]	> 8100
CN1C(=O)c2c(O)c(=O)ccn2N2C1CCCC21CCCc2ccccc21 (single isomer, unassigned) [Compound 32A, 7-hydroxy-5-methyl-3,3′,4,4a,4′,5-hexahydro-2H,2′H-spiro[dipyrido[1,2-b:2′,1′-f][1,2,4]triazine-1,1′-naphthalene]-6,8-dione]	> 8100
Cc1ccc(C2(C)CCCC3N(CC(F)(F)F)C(=O)c4c(O)c(=O)ccn4N32)nc1 (single isomer, unassigned) [Compound 49B, 7-hydroxy-1-methyl-1-(5-methylpyridin-2-yl)-5-(2,2,2-trifluoroethyl)-1,2,3,4,4a,5-hexahydrodipyrido[1,2-b:2′,1′-f][1,2,4]triazine-6,8-dione]	26.5
CN1C(=O)c2c(O)c(=O)ccn2N2C(c3ccccc3)C(CC(F)F)CCC12 (single isomer, unassigned) [Compound 129A, 2-(2,2-difluoroethyl)-7-hydroxy-5-methyl-1-phenyl-1,2,3,4,4a,5-hexahydrodipyrido[1,2-b:2′,1′-f][1,2,4]triazine-6,8-dione]	2.3
CC1(c2cc(C(F)(F)F)ccn2)CCCC2N(CC3(C(F)(F)F)CC3)C(=O)c3c(O)c(=O)ccn3N21 (single isomer, unassigned) [Compound 52A, 7-hydroxy-1-methyl-5-((1-(trifluoromethyl)cyclopropyl)methyl)-1-(4-(trifluoromethyl)pyridin-2-yl)-1,2,3,4,4a,5-hexahydrodipyrido[1,2-b:2′,1′-f][1,2,4]triazine-6,8-dione]	114
CN1C(=O)c2c(O)c(=O)ccn2N2C(c3ccccc3)C3CCC(C3)C12 (single isomer, unassigned) [Compound 9D, 4-hydroxy-6-methyl-11-phenyl-6a,7,8,9,10,11-hexahydro-3H-7,10-methanopyrido[1′,2′:1,6][1,2,4]triazino[2,3-a]azepine-3,5(6H)-dione]	> 8100
CCN1C(=O)c2c(O)c(=O)cc(COC)n2N2C(c3ccccc3)C(CC(F)(F)F)CCC12 (centres unmarked) [Compound 131D, 5-ethyl-7-hydroxy-10-(methoxymethyl)-1-phenyl-2-(2,2,2-trifluoroethyl)-1,2,3,4,4a,5-hexahydrodipyrido[1,2-b:2′,1′-f][1,2,4]triazine-6,8-dione]	> 810
CN1C(=O)c2c(O)c(=O)ccn2N2[C@H](c3ccccc3)[C@H](OCC(F)F)CC[C@@H]12 (single isomer, unassigned) [Compound 153B]	94.4
CCN1C(=O)c2c(O)c(=O)ccn2N2C(c3ccccc3)C(c3ccc(F)c(F)c3)CCC12 (single isomer, unassigned) [Compound 94B, 2-(3,4-difluorophenyl)-5-ethyl-7-hydroxy-1-phenyl-1,2,3,4,4a,5-hexahydrodipyrido[1,2-b:2′,1′-f][1,2,4]triazine-6,8-dione]	8.6
CN1C(=O)c2c(O)c(=O)ccn2N2C(c3cccc(OC(F)F)c3)CCCC12 (single isomer, unassigned) [Compound 12B, 1-(3-(difluoromethoxy)phenyl)-7-hydroxy-5-methyl-1,2,3,4,4a,5-hexahydrodipyrido[1,2-b:2′,1′-f][1,2,4]triazine-6,8-dione]	> 8100
CN1C(=O)c2c(O)c(=O)ccn2N2C1CCCC2(C)c1cccc(OC(F)F)c1 (single isomer, unassigned) [Compound 51B, 1-(3-(difluoromethoxy)phenyl)-7-hydroxy-1,5-dimethyl-1,2,3,4,4a,5-hexahydrodipyrido[1,2-b:2′,1′-f][1,2,4]triazine-6,8-dione]	16.3
CN1C(=O)c2c(O)c(=O)ccn2N2C1CCC1(CCC(C(F)(F)F)CC1)C2c1ccccc1 (single isomer, unassigned) [Compound 73A, 7′-hydroxy-5′-methyl-1′-phenyl-4-(trifluoromethyl)-3′,4′,4a′,5′-tetrahydro-1′H-spiro[cyclohexane-1,2′-dipyrido[1,2-b:2′,1′-f][1,2,4]triazine]-6′,8′-dione]	> 810

Same assay, conditions: MDCK, 48 h

Compound	EC50 [nM]
CCCC1CCC2C(n3ccc(=O)c(O)c3C(=O)N2C)C1(O)c1ccccc1 (single isomer, unassigned) [Compound 166A, 1,7-dihydroxy-5-methyl-1-phenyl-2-propyl-1,3,4,4a,5,11a-hexahydro-2H-pyrido[1,2-a]quinoxaline-6,8-dione]	> 8100
CN1C(=O)c2c(O)c(=O)ccn2N2[C@H](c3ccccc3)[C@@H](OCCCCC#N)CC[C@@H]12 [Compound 154, 5-(((1R,2S,4aS)-7-hydroxy-5-methyl-6,8-dioxo-1-phenyl-1,2,3,4,4a,5,6,8-octahydrodipyrido[1,2-b:2′,1′-f][1,2,4]triazin-2-yl)oxy)pentanenitrile]	> 810
CC(=O)N(C)[C@H]1CC[C@@H](c2ccccc2)N2[C@@H]1N(C)C(=O)c1c(O)c(=O)ccn12 [Compound 145, N-((1S,4S,4aS)-7-hydroxy-5-methyl-6,8-dioxo-1-phenyl-1,2,3,4,4a,5,6,8-octahydrodipyrido[1,2-b:2′,1′-f][1,2,4]triazin-4-yl)-N-methylacetamide]	> 810
